From patent EP0123546A2, “Compositions for treating inflammation and eliciting analgesia” (Norwich Eaton Pharmaceuticals, Inc., priority 1983, dated 1984)
Like-named read-outs stand apart in the source and are kept apart here.

Columns and labels:
[1] = test system: carrageenin-induced rat paw edema; experiment: carrageenin-induced rat paw edema method (Winter et al.); type: in vivo, male Wistar rats; settings: for protection: 300 mg/kg p.o.
Text: The compound 5-(4-chlorophenyl)-2-furancarboxylic acid (I) [drawing 1] and its preparation have been described in the chemical literature (Mathur et al. , J. Chem. Soc., 1961 (Part 2), 2576-2578). It has now been discovered that this compound exerts impressive anti-inflammatory activity using the well recognized carrageenin- induced rat paw edema method described by Winter et al. in Proc. Soc. […] Positive results secured under this method are correlative to successful performance in other species where the need for anti-inflammatory medication is present.
In accordance with the aforementioned -method, fasted male Wistar rats, 100-125 g., were dosed in groups of 3 with […] p.o. of (1) in 0.5% (wlv) methylcellulose. A control group of 20 rats (groups of 5 rats each combined from 4 separate experiments) received methylcellulose only at the same dose rate of 10 ml/kg. One hour later 0.05 ml of 1% (w/v) carrageenin was injected into the plantar region of the right hindpaw of each rat, using a 27-gauge 1/2-inch needle. Before oral dosing and at 4 and 6 hours post-carrageenin, hindpaw volumes were determined by immersing the feet in a liquid mercury bath to the level of the anatomical hairline. Displacement of the mercury was determined as a pressure difference, measured through a Statham venous pressure transducer coupled to a Grass Model 7 polygraph. The polygraph was calibrated such that a 1 ml displacement produced a 1 mm pen deflection. Two consecutive measurements were taken in all cases and the mean value used in calculations. Calculation of the ED50 value was done as described below for the mouse writhing data. Mean percent protection increased at 4 hours from 0 to 3 mg/kg p.o. to 51.5 at 100 mg/kg p.o. and at 6 hours from 16.6 at 3 mg/kg to 39.9 at 100 mg/kg in a dose-dependent manner. The high dose of 300 mg/kg p.o. gave 34.9 and 23.2% protection at 4 and 6 hours, respectively.

[2] = test system: ultraviolet light-induced cutaneous erythema; experiment: ultraviolet light-induced cutaneous erythema test (Winder et al.); type: in vivo, guinea pigs; settings: Cavia porcellus, po; linear regression of log dose versus percent protection, combined 2, 3 and 4 hour readings
Description: Guinea pigs weighing 280-715 g were fasted 24 hours and the dorsal-lateral surface was cleared by clipping and chemical depilation. The animals were placed in an opaque rubber glove with three circular, 6 mm punched holes. Exposure for 90 seconds at a distance of 7 cm to a Model 30620 Hanovia ultraviolet lamp with a Type 616A bulb and Type 6540-001 filter produced the erythema. (I) in methylcellulose was administered orally one hour before irradiation to groups of 5 animals at doses from 5 to 153 mg/kg at a rate of 10 mI/kg. Erythema was scored at 2, 3 and 4 hours post-irradiation as 0 (no redness), 0.5 (slight redness) or 1 (full red circle). Percent protection was calculated with reference to a vehicle-dosed control group of 5 animals treated on the same day. ED50 values were estimated by linear regression analysis of the log dose versus percent protection (combined 2, 3 and 4 hour readings) relationship.

[3] = test system: phenylquinone-induced writhing; experiment: antagonism of phenylquinone-induced writhing (Hendershot and Forsaith); type: in vivo, male albino mice; settings: for Mean percent protection: one hour before phenylquinone i.p.; for ED50: Mus musculus, read-out: dose giving 50% protection (ED50)
Description: Groups of 10 fasted male albino mice, 14-28 g. were dosed by gavage with 18-1,000 mg/kg (I) in 0.5% (w/v) methylcellulose or with methylcellulose solution alone. One hour later each mouse received 10 ml/kg of 0.02% phenylquinone in 5% ethanol intraperitoneally. The characteristic writhing responses were observed and counted from 5 to 15 minutes after phenylquinone administration.

[4] = test system: carrageenin-induced rat paw edema; settings: same test; Goldenberg et al., Arch. Int. Pharmacodyn. Ther., 243:331-350, 1980; cited from earlier work
[5] = test system: ultraviolet light-induced cutaneous erythema; settings: similar evaluation; Goldenberg et al., op cit.; cited from earlier work

Row | Structure (SMILES) | Mean percent protection ([1]; 3 mg/kg p.o., 4 hours post-carrageenin) | Mean percent protection ([1]; 3 mg/kg p.o., 6 hours post-carrageenin) | Mean percent protection ([1]; 100 mg/kg p.o., 4 hours post-carrageenin) | Mean percent protection ([1]; 100 mg/kg p.o., 6 hours post-carrageenin) | protection ([1]; 4 hours post-carrageenin) | protection ([1]; 6 hours post-carrageenin) | ED50 ([1]; Rattus norvegicus, 4 hours post-carrageenin, oral dose 1 hour before carrageenin) | ED50 [2] | Mean percent protection ([3]; 18 mg/kg by gavage) | Mean percent protection ([3]; 1,000 mg/kg by gavage) | ED50 ([3]; linear regression of log oral dose versus percent protection) | ED50 ([3]; po) | ED50 value [4] | ED50 estimate [5]
1 | O=C(O)c1ccc(-c2ccc(Cl)cc2)o1 [(I), 5-(4-chlorophenyl)-2-furancarboxylic acid] | 0% | 16.6% | 51.5% | 39.9% | 34.9% | 23.2% | 84.2 mg/kg | 24 mg/kg | 13.1% | 92.4% | 213 mg/kg | – | – | –
2 | CC(=O)Oc1ccccc1C(=O)O [aspirin] | – | – | – | – | – | – | – | – | – | – | – | 182 mg/kg | 155 mg/kg p.o. | 49.5 mg/kg p.o.
